Patent US20240197712A1, “TGF-BETA INHIBITION FOR IMMUNODEFICIENCY VIRUS REACTIVATION FROM LATENCY, ENHANCEMENT OF IMMUNODEFICIENCY VIRUS-SPECIFIC RESPONSES AND IMMUNODEFICIENCY VIRUS CURE” (Northwestern University, priority 2022, published 2024)

Key:
[1] = tested on: ACH-2 cells; experiment: PMA-induced HIV reactivation in ACH-2 cells, intracellular p24 staining; assay type: cell-based
Protocol: ACH2 cells and U1 cells were obtained through the NIH HIV Reagent Program, Division of AIDS, NIAID, NIH (contributed by Dr. Thomas Folks). […] In the HIV latency reactivation conditions, PMA (Phorbol 12-myristate 13-acetate, SigmaAldrich) was added at 100 ng/ml together with galunisertib or TGF-β1. After 18 hrs, cells were stained intracellularly for p24 using the KC57 antibody (NIH HIV Reagent Program) as previously described (74).

[2] = tested on: U1 cells; experiment: DC-driven HIV reactivation from U1 cells (moDC co-culture); assay type: cell-based; details: moDCs treated with TGF-β1 10 ng/ml for last 2 days, with or without galunisertib; 18 hrs co-culture
Protocol: (§1) CD14^+ cells were isolated from PBMC using the Miltenyi CD14^+ beads. Monocyte-derived DCs (moDCs) were obtained from CD14+ cells cultured in GM-CSF and IL-4 as previously described (55). At day 4 of moDCs differentiation, TGF-β1 (10 ng/ml R&D systems) was added to the moDCs to generate the TGF-β-DCs (or both TGF-β1 and galunisertib). At day 6, 2 days after TGF-1 addition, moDCs were phenotyped (in 3 donors; See Table 2 for antibodies list) and co-cultured with eFluor670 (eBioscience)-labelled U1 at 3:1 U1:DC ratio (5 donors). After 18 hrs of co-culture, cells were stained for p24 intracellularly as described above.

[3] = tested on: moDCs; experiment: moDC phenotyping by flow cytometry; assay type: cell-based, human; details: moDCs generated in the presence of TGF-β1
Protocol: as §1

[4] = tested on: U1 cells; experiment: PMA-induced HIV reactivation in U1 cells, intracellular p24 staining; assay type: cell-based; details: U1 cells
Protocol: ACH2 cells and U1 cells were obtained through the NIH HIV Reagent Program, Division of AIDS, NIAID, NIH (contributed by Dr. Thomas Folks). Cells ([…]) were cultured in triplicates in RPMI with 10% FBS and Pen/Strep in presence of TGF-β1 (10 ng/ml R&D systems), TGF-β1 and galunisertib (1 μM MedChemExpress), galunisertib alone or mock treated. In the HIV latency reactivation conditions, PMA (Phorbol 12-myristate 13-acetate, SigmaAldrich) was added at 100 ng/ml together with galunisertib or TGF-β1. After 18 hrs, cells were stained intracellularly for p24 using the KC57 antibody (NIH HIV Reagent Program) as previously described (74).

[5] = tested on: primary CD4+ T cells; experiment: Primary CD4+ T cell model of HIV-1 latency, p24 ICS; assay type: cell-based, human; details: primary CD4+ T cells infected with HIV ADA; PMA 100 ng/ml; TGF-β1 10 ng/ml or galunisertib 1 μM
Protocol: Next, the impact of TGF-β1 on a primary model of HIV-1 latency was tested using freshly isolated CD4+ T cells. The experiment was based on the model by Berkhout and colleagues (50) with some modifications (FIG. 1F). Specifically, CD4+ T cells were isolated from HIV-1 uninfected, de-identified donor PBMC and activated them with PHA and IL-2 for 3 days before infection via spinoculation with HIV ADA. After extensive wash of the viral inoculum, cells were cultured 48 hrs in presence of T20 (enfuvirtide) to avoid viral spread beyond the cells with initial integrations. The overall initial infection achieved was very low despite the spinoculation step (˜0.1% of p24-gag+ cells, FIGS. 3A-3B).
Blood from de-identified donors was obtained from the New York Blood Bank and used as source of CD4 T cells for the primary model of HIV latency in vitro. Total CD4+ T cells were isolated with the CD4 T cells isolation kit (Miltenyi) and activated with 5 μg/ml of PHA and 50 U/ml of IL-2 for 3 days. After washing out the PHA, cells were infected with 200TCID50 of HIV-ADA (NIH HIV Reagent Program) in 12 or 24 wells/plates and spinoculated at 1200 g for 2 hrs at 25° C. After additional 3 hrs of incubation at 37° C., viral inoculum was washed and cells plated in presence of T20 (Enfurtivide acetate salt, 1 μM NIH AIDS reagent program). […]

How did the “decrease of the frequency of p24-gag+ cells in PMA-stimulated cultures” value ([1]; ACH-2 cells, PMA 100 ng/ml, TGF-β1 10 ng/ml) turn out when “TGF-β1: exogenous TGF-β1 cytokine (R&D systems) added to cultures at 10 ng/ml” was run?
Its value is ~20%.

What about the “baseline p24-gag levels in absence of PMA” value ([1]; ACH-2 cells, TGF-β1 10 ng/ml) of the same substance?
Its value is “smaller but consistent decrease”.

What about the “effect on p24+ cells in X-Vivo 15 medium without FBS” value ([1]; control experiments, U1 and ACH-2, no FBS) of the same substance?
The value was “more pronounced”.

And the “frequency of p24-gag+ U1 cells in cocultures with TGF-β1-treated DCs versus untreated DCs” value [2]?
Its value is “significantly less”.

What about the “DEC-205 expression on moDCs” value [3] of the same substance?
Its value is “significantly lower”.

What about the “frequency of p24-gag+ cells in unstimulated cultures” value ([4]; no PMA, TGF-β1 10 ng/ml or galunisertib 1 μM alone) of the same substance?
Its value is “below the baseline level”.

And the “reduction of the PMA driven increase in the frequency of p24-gag+ cells” value ([4]; PMA 100 ng/ml, TGF-β1 10 ng/ml, 18 hrs)?
The value was ~20%.

And the “PMA-induced frequency of p24-gag+ cells” value [5]?
Its value is “significantly inhibited”.
